How the values were obtained:
[1] = target: Mitogen-activated protein kinase 9 (Homo sapiens) (UniProt P45984); experiment: MAPK9 SGC Tm panel (DSF); conditions: for ΔTm: Compound concentration 10.0 uM
[2] = target: T1, Peripheral plasma membrane protein CASK (Homo sapiens) (UniProt O14936); experiment: CASK SGC Tm panel (DSF); conditions: for ΔTm: Compound concentration 10.0 uM
T1 sequence (whole entry): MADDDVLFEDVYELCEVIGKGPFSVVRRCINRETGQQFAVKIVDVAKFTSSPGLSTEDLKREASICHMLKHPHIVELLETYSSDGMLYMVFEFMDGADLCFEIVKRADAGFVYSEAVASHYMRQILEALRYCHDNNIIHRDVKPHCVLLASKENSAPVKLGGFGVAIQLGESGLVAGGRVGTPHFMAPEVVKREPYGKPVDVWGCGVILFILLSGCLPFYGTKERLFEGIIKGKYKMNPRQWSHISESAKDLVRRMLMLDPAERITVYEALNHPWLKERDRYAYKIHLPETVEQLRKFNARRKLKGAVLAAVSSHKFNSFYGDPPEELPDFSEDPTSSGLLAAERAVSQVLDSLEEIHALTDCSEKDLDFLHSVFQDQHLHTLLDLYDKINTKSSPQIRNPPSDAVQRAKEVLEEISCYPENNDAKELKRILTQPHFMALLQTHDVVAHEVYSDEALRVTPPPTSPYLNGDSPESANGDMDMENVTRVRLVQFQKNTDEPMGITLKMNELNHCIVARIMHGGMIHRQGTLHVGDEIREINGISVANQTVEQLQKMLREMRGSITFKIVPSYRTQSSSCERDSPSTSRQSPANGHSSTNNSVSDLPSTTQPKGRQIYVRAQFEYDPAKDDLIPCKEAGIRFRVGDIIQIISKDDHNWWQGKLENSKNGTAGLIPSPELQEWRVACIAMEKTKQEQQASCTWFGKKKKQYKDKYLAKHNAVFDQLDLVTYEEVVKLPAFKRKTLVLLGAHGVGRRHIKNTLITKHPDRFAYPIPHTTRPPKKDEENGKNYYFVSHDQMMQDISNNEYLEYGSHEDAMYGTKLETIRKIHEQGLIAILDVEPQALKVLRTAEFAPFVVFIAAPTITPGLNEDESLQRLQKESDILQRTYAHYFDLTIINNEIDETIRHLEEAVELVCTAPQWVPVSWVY

[3] = target: Muscarinic acetylcholine receptor M3 (Homo sapiens) (UniProt P20309); conditions: Compound concentration 10.0 uM
Chain of Muscarinic acetylcholine receptor M3 (Homo sapiens) (P20309 whole entry, looked up): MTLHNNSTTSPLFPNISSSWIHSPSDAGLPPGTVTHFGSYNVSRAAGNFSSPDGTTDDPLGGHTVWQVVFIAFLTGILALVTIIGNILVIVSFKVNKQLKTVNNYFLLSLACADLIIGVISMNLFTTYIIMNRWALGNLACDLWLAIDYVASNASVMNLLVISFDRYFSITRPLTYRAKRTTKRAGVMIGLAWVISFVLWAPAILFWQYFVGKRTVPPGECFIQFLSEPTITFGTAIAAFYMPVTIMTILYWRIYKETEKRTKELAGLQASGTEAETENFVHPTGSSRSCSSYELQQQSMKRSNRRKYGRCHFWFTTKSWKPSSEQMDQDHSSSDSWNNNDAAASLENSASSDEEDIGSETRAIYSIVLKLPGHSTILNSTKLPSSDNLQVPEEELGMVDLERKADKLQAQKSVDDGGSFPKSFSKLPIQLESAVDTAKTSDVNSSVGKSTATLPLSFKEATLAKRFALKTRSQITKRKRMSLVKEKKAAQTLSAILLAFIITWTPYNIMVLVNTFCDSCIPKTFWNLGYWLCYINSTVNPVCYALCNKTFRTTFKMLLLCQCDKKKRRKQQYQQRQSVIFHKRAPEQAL

[4] = target: Tyrosine-protein kinase Fes/Fps (Homo sapiens) (UniProt P07332); experiment: FES SGC Tm panel (DSF); conditions: for ΔTm: Compound concentration 10.0 uM
Chain of Tyrosine-protein kinase Fes/Fps (Homo sapiens) (P07332 whole entry): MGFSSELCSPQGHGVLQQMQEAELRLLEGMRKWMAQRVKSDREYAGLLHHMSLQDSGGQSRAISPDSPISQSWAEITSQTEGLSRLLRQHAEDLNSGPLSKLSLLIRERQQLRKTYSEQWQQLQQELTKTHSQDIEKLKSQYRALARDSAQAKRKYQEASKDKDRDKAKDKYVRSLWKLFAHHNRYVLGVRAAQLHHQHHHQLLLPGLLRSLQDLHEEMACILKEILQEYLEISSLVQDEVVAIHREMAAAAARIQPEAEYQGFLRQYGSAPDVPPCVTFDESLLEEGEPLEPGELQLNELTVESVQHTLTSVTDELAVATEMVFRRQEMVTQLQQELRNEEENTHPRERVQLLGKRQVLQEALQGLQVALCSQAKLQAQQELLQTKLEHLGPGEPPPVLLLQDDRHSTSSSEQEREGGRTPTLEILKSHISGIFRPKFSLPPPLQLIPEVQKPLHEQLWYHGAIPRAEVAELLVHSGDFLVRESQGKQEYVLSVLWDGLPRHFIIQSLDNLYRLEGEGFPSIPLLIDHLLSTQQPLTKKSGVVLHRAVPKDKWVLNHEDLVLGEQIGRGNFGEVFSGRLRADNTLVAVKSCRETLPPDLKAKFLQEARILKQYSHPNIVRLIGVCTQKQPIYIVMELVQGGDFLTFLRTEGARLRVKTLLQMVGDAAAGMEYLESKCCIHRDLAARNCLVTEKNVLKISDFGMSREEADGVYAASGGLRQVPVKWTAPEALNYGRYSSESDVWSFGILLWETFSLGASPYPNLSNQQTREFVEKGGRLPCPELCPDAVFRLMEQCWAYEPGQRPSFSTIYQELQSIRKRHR

[5] = target: T2, Bone morphogenetic protein receptor type-2 (Homo sapiens) (UniProt Q13873); experiment: BMPR2 SGC Tm panel (DSF); conditions: for ΔTm: Compound concentration 10.0 uM
T2 sequence (whole entry): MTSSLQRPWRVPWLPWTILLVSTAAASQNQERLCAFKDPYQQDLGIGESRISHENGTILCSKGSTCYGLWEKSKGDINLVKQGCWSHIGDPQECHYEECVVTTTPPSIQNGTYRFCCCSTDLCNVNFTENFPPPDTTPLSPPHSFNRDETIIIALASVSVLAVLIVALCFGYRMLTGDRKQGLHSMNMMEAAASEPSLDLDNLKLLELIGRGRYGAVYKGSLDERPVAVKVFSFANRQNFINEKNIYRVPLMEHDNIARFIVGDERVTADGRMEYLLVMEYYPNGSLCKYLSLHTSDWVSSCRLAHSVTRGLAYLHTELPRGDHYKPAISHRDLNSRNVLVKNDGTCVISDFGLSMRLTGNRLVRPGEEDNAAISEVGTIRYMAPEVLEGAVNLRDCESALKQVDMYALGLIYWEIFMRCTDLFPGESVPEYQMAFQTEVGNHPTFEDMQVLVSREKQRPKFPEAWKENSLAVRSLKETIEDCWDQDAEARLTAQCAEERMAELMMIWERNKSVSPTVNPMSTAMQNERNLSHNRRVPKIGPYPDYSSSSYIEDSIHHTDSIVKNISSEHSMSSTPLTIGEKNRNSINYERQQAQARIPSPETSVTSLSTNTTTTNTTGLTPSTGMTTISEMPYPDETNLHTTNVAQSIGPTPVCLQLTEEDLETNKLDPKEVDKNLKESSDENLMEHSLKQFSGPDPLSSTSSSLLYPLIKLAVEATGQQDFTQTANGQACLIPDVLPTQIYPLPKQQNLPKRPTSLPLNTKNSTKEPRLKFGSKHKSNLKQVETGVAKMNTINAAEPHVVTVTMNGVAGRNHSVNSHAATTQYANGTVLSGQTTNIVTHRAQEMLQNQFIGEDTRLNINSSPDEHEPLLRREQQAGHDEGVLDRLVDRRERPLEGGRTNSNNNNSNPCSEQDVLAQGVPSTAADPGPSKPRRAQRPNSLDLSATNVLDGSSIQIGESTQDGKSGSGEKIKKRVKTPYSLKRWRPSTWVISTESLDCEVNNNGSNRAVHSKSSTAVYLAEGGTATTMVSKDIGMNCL

[6] = target: Aurora kinase B (Homo sapiens) (UniProt Q96GD4); experiment: AURKB SGC Tm panel (DSF); conditions: for ΔTm: Compound concentration 10.0 uM
Chain of Aurora kinase B (Homo sapiens) (Q96GD4 whole entry): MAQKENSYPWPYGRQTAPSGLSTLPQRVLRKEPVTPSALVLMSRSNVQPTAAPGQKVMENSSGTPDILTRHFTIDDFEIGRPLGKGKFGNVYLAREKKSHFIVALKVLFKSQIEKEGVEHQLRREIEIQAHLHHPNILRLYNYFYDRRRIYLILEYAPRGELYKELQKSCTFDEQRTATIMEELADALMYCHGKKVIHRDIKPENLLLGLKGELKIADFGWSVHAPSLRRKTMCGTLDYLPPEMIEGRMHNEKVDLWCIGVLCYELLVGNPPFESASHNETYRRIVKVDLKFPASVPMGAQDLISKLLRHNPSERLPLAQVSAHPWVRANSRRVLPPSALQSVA

Chain of Mitogen-activated protein kinase 9 (Homo sapiens) (P45984 whole entry, looked up): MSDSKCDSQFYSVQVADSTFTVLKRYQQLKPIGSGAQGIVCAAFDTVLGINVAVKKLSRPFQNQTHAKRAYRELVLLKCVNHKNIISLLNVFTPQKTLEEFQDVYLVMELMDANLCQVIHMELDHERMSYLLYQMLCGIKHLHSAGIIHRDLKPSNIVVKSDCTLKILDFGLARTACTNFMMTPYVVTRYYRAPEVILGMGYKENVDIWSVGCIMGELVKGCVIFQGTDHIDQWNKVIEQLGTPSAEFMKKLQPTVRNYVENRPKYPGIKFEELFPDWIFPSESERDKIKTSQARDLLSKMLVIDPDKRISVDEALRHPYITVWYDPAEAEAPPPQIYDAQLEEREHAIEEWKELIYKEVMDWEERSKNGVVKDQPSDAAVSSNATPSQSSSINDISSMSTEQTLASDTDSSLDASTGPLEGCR

Row | SMILES | delta Tm Staurosporine positive control [1] | ΔTm [1] | delta Tm Staurosporine positive control [2] | ΔTm [2] | inhibition [3] [%] | delta Tm Staurosporine positive control [4] | ΔTm [4] | delta Tm Staurosporine positive control [5] | ΔTm [5] | delta Tm Staurosporine positive control [6] | ΔTm [6]
1 | C[C@H](NC(=O)c1cn(C2(C#N)CC2)cn1)C(=O)Nc1nc(-c2cccc(-c3ccn(C)n3)c2)cs1 | 3.96 | 0.39 | 4.91 | 0.617 | 40.1 | 8.7 | 0.0445 | 2.89 | 0.38 | 13.6 | 0.802
2 | COC[C@H](NC(=O)c1ccn(S(C)(=O)=O)c1)C(=O)Nc1nc(-c2cccc(-c3ccn(C)n3)c2)cs1 | 3.96 | 0.244 | 4.91 | 0.501 | 9.46 | 8.7 | 0.123 | 2.89 | 0.371 | 13.6 | 1.29
